Measured values from EPA's CvTdb concentration-time database.

Assays:
Assay in all cases: concentration in blood after dosing
rat [1] = settings: dosed: hexane, 60000 ppm, dermal, duration: 4 hr, male, F344
rat [2] = settings: dosed: hexane, 60000 ppm, dermal, duration: 4 hr, male, F344; remark: listed apart in the source
rat [3] = settings: dosed: hexane, 60000 ppm, dermal, duration: 4 hr, male, F344; remark: listed apart in the source
rat [4] = settings: dosed: hexane, 60000 ppm, dermal, duration: 4 hr, male, F344; remark: listed apart in the source
rat [5] = settings: dosed: hexane, 60000 ppm, dermal, duration: 4 hr, male, F344; remark: listed apart in the source
Rat [6] = settings: dosed: Naphthalene, 3 mg/kg, iv, Male, F344
Rat [7] = settings: dosed: Naphthalene, 1 mg/kg, iv, Female, F344
Rat [8] = settings: dosed: Naphthalene, 1 mg/kg, iv, Male, F344
Rat [9] = settings: dosed: Naphthalene, 3 mg/kg, iv, Male, F344; remark: listed apart in the source
Rat [10] = settings: dosed: Naphthalene, 1 mg/kg, iv, Male, F344; remark: listed apart in the source
Rat [11] = settings: dosed: Naphthalene, 1 mg/kg, iv, Female, F344; remark: listed apart in the source
Rat [12] = settings: dosed: Naphthalene, 10 mg/kg, iv, Male, F344
Rat [13] = settings: dosed: Naphthalene, 10 mg/kg, iv, Male, F344; remark: listed apart in the source
Rat [14] = settings: dosed: Naphthalene, 3 mg/kg, iv, Female, F344
Rat [15] = settings: dosed: Naphthalene, iv, F344

CCCCCC [hexane]
concentration in blood [ng/mL]
Settings	rat [1]	rat [2]	rat [3]	rat [4]	rat [5]
0.5 h	1240	–	1500	–	606
1 h	804	708	31.2	406	903
2 h	1100	112	–	812	500
3 h	1300	414	304	796	–
4 h	999	–	804	200	–

c1ccc2ccccc2c1 [Naphthalene]
concentration in blood [ng/mL]
Settings	1 h	2 h	2 min	4 h	5 min	6 h	8 h	10 min	20 min	40 min
Rat [6]	133	52.1	6890	19.3	4770	–	–	2440	736	255
Rat [7]	–	–	21.4	–	51.6	23.6	–	–	20.5	–
Rat [8]	30.5	–	1300	–	625	–	–	340	82.5	46.6
Rat [9]	169	82.8	–	–	2000	–	–	3690	1240	306
Rat [10]	36.2	–	1390	–	701	–	–	312	127	54.8
Rat [11]	21.2	–	1740	–	548	–	–	204	29.3	34.3
Rat [12]	487	172	–	90.2	8740	47.3	33.3	4000	2610	661
Rat [13]	407	172	–	76.7	8050	38.2	–	4930	2640	839
Rat [14]	103	47	2870	26.7	1900	27.7	24.2	942	468	151

concentration in blood [ng/mL], Rat [15]
Settings	1 mg/kg	3 mg/kg	10 mg/kg
1 h, Female	–	80	–
1 h, Male	34.8	172	446
2 h, Female	–	35.1	–
2 h, Male	–	233	214
2 min, Female	1330	2780	–
2 min, Male	3260	260	–
4 h, Male	–	87.1	90
5 min, Female	770	1480	–
5 min, Male	677	152	11200
6 h, Male	–	90.9	58.5
8 h, Male	–	20.6	38.1
10 min, Female	407	1380	–
10 min, Male	315	215	6220
12 h, Male	–	–	21.5
20 min, Female	120	375	–
20 min, Male	107	185	2850
40 min, Female	43	125	–
40 min, Male	–	173	860
